Experimental data taken from patent publication US20040077674A1, “Mappicine analogs, intermediates in the synthesis of mappicine analogs and methods of synthesis of mappicine analogs” (priority 2002, published 2004).

Columns and labels:
[1] = target: T1, RNA-dependent DNA polymerase activity of HIV reverse transcriptase (Human immunodeficiency virus type 1 group M subtype B, UniProt P03366); test: RNA-dependent DNA polymerase activity assay of HIV reverse transcriptase; format: biochemical, HIV-1; conditions: 10 μM inhibitor concentration, activity in presence / in absence of analog x 100
T1 construct: made in house
Procedure: In separate representative assays, mappicine analogs were tested for their ability to inhibit the RNA-dependent DNA polymerase activity of HIV reverse transcriptase and for their ability to inhibit the RNase H activity of HIV reverse transcriptase. The assay for RNA-dependent DNA polymerase activity is discussed in Borkow, G. et al., “Inhibition of the Ribonuclease H and DNA Polymerase Activities of HIV-1 Reverse Transcriptase by N-(4-tert-Butylbenzoyl)-2-hydroxy-1-naphthaldehyde Hydrazone,” Biochemistry 1997, 36, 3179-3185, a copy of which is attached hereto and the disclosure of which is incorporated herein by reference. Assays were carried out in the absence and in the presence of mappicine analogs (10 μM final concentration). The results are reported as % residual activity, which is the RNA-dependent DNA polymerase activity of the enzyme in the presence of the mappicine analog divided by the RNA-dependent activity of the enzyme in the absence of the mappicine analog, multiplied by 100.

[2] = target: T2, RNase H activity of HIV reverse transcriptase (Human immunodeficiency virus type 1 group M subtype B, UniProt P03366); test: Fluorescence (FRET)-based RNase H assay of HIV reverse transcriptase; format: biochemical, HIV-1; conditions: 10 μM inhibitor concentration, activity in presence / in absence of analog x 100
T2 construct: 2.5 nM of the p51/p66 RT heterodimer in the assay; made in house
Procedure: Recently, a fluorescence-based assay to perform screens in search of HIV RNase H inhibitors has been developed. The assay, which is carried out in 96-well microplates and is adaptable to robotics, is the first high-throughput screen for RNase H and is described in further detail in the Experimental section. HIV-1 RT and human RNase H were cloned, and thus comparative analysis of inhibitor action could be conducted simultaneously.
The assay for RNase H activity of HIV reverse transcriptase was the fluorescence-based assay described in detail in the Experimental section and discussed in U.S. Provisional Patent Application Serial No. 60/318,359. Assays were carried out in the absence and in the presence of mappicine analogs (10 μM or 20 μM final concentration). The results are reported as % residual activity, which is the RNase H activity of the enzyme in the presence of the mappicine analog divided by the RNase H activity of the enzyme in the absence of the mappicine analog, multiplied by 100. Alternatively, the results are reported as % inhibition, which is calculated as the ratio of the RNase H activity of the enzyme in the presence of the mappicine analog to the enzyme activity in the absence of the mappicine analog, multiplied by 100, and then subtracting this number from 100.
Assay for Ribonuclease H Activity Based on Fluorescence Resonance Energy Transfer (FRET)
Preparation of the Fluorophore-RNA/Quencher-DNA Hybrid Duplex Substrate.
The RNA/DNA hybrid duplex substrate for use in the assay comprises an RNA oligonucleotide of sequence 5′-GAU CUG AGC CUG GGA GCU-3′, modified at the 3′-end with Aminolink-2 and derivatized with fluorescein isothiocyanate, to provide a modified RNA oligonucleotide of the sequence 5′-GAU CUG AGC CUG GGA GCU-fluorescein-3′, annealed to a complementary DNA oligonucleotide of the sequence 5′-AGC TCC CAG GCT CAG ATC-3′ modified at the 5′-end with Aminolink-2 and derivatized with the FRET acceptor DABCYL succinimidyl ester, to provide a modified DNA oligonucleotide of the sequence 5′-DABCYL-AGC TCC CAG GCT CAG ATC-3′.
To prepare the 3′-fluorescein-RNA/5′-DABCYL-DNA hybrid duplex substrate, a known amount of 3′-fluorescein-RNA was dissolved in 20 mM Tris buffer (pH 8.0, 37° C.) to provide a final concentration of 5 μM. Two equivalents of the 5′-DABCYL-DNA oligonucleotide were added, and the mixture was heated to 90° C. for 5 min and cooled slowly to room temperature to allow duplex formation. The positioning of the fluorescein donor at the 3′-end of the RNA oligonucleotide and the DABCYL acceptor at the 5′-end of the DNA oligonucleotide provides a very close proximity of the donor and acceptor that results in a very intense quenching of the fluorescein emission in the intact RNA/DNA hybrid duplex substrate due to the spectral overlap of the fluorescence emission of fluorescein with the absorption spectrum of DABCYL. In addition, DABCYL is non-fluorescent, and thus cannot contribute any light emission. Both of these factors result in a very low background and provide a high signal-to-noise in the assay measurements. The ratio of the donor fluorescence in the absence and in the presence of its quencher is approximately fifteen-fold.
Microplate Assay Protocol for the Measurement of RNase H Activity Using the RNA/IDNA Hybrid Duplex Substrate.
Reaction assay mixtures contained 5 μl of a stock solution of 2.5 μM RNA/DNA hybrid duplex substrate added to 85 μl of assay buffer (50 mM Tris, pH 8.0, 37° C., containing 60 mM KCl and 2.5 mM MgCl2), prepared in the wells of a 96-well fluorescence microtiter plate, and warmed to 37° C. using the temperature control of the SpectraMax Gemini XS microplate spectrofluorometer (Molecular Devices). Reactions were started by the addition of 5 μl of a solution of recombinant HIV-1 reverse transcriptase (usually providing a final concentration of 2.5 nM of the p51/p66 RT heterodimer in the assay), and mixing using the automatic mixing function of the microplate spectrofluorometer. […]

SMILES	Residual activity (%) Polymerase [1] [%]	Residual activity (%) RNase H [2] [%]	Residual activity (%) Polymerase ([1]; 10 µM) [%]	Residual activity (%) RNase H ([2]; 10 µM) [%]
COc1ccc2nc3c(c([Si](C)(C)C(C)(C)C)c2c1)Cn1c-3cc(C(O)C(C)(C)C)c(C)c1=O (stereo not drawn) [5 (4Dβ)]	47	91	–	–
COc1ccc2nc3c(c([Si](C)(C)C(C)(C)C)c2c1)Cn1c-3cc(C(=O)C(C)(C)C)c(C)c1=O [5 (4Dβκ)]	64	97	–	–
COc1ccc2nc3c(c([Si](C)(C)C(C)(C)C)c2c1)Cn1c-3cc(C(O)CCC2CCCCC2)c(C)c1=O (stereo not drawn) [5 (4Dδ)]	51	87	–	–
COc1ccc2nc3c(c([Si](C)(C)C(C)(C)C)c2c1)Cn1c-3cc(C(=O)CCC2CCCCC2)c(C)c1=O [5 (4Dδκ)]	50	83	–	–
COc1ccc2nc3c(c([Si](C)(C)C(C)(C)C)c2c1)Cn1c-3cc(C(O)Cc2ccccc2)c(C)c1=O (stereo not drawn) [5 (4Dε)]	49	76	–	–
CCC(O)c1cc2n(c(=O)c1C)Cc1c-2nc2ccccc2c1[Si](C)(C)C (stereo not drawn) [5 (5Aα)]	–	–	32	93
CCC(=O)c1cc2n(c(=O)c1C)Cc1c-2nc2ccccc2c1[Si](C)(C)C [5 (5Aακ)]	91	103	–	–
Cc1c(C(O)C(C)(C)C)cc2n(c1=O)Cc1c-2nc2ccccc2c1[Si](C)(C)C (stereo not drawn) [5 (5Aβ)]	103	77	–	–
Cc1c(C(=O)C(C)(C)C)cc2n(c1=O)Cc1c-2nc2ccccc2c1[Si](C)(C)C [5 (5Aβκ)]	47	97	–	–
Cc1c(C(O)CCC2CCCCC2)cc2n(c1=O)Cc1c-2nc2ccccc2c1[Si](C)(C)C (stereo not drawn) [5 (5Aδ)]	83	78	–	–
Cc1c(C(=O)CCC2CCCCC2)cc2n(c1=O)Cc1c-2nc2ccccc2c1[Si](C)(C)C [5 (5Aδκ)]	90	75	–	–
Cc1c(C(O)Cc2ccccc2)cc2n(c1=O)Cc1c-2nc2ccccc2c1[Si](C)(C)C (stereo not drawn) [5 (5Aε)]	54	93	–	–
CCC(O)c1cc2n(c(=O)c1C)Cc1c-2nc2ccc(F)cc2c1[Si](C)(C)C (stereo not drawn) [5 (5Bα)]	82	105	–	–
CCC(=O)c1cc2n(c(=O)c1C)Cc1c-2nc2ccc(F)cc2c1[Si](C)(C)C [5 (5Bακ)]	74	89	–	–
Cc1c(C(O)C(C)(C)C)cc2n(c1=O)Cc1c-2nc2ccc(F)cc2c1[Si](C)(C)C (stereo not drawn) [5 (5Bβ)]	74	102	–	–
Cc1c(C(=O)C(C)(C)C)cc2n(c1=O)Cc1c-2nc2ccc(F)cc2c1[Si](C)(C)C [5 (5Bβκ)]	63	100	–	–
Cc1c(C(O)CCC2CCCCC2)cc2n(c1=O)Cc1c-2nc2ccc(F)cc2c1[Si](C)(C)C (stereo not drawn) [5 (5Bδ)]	78	103	–	–
Cc1c(C(=O)CCC2CCCCC2)cc2n(c1=O)Cc1c-2nc2ccc(F)cc2c1[Si](C)(C)C [5 (5Bδκ)]	46	78	–	–
